Results: patent US5567693A, “Method for inhibiting angiogenesis, proliferation of endothelial or tumor cells and tumor growth” (American Cyanamid Company, priority 1994, dated 1996)
Structures can show the parent of a compound that is named as a salt. Where two headings read alike, the source gives them in different places.

Assays:
Format in all cases: cell-based
CACO2 = test: Antiproliferative activity in human tumor cell lines: CACO2 (colon); conditions: Homo sapiens
Description: (§1) The antiproliferative activity of the compounds of Formula I in an Adult Bovine Aortic Endothelial (ABAE) cell line and in Human Tumor cell lines is evaluated in three similar assays that measure growth inhibition. The assays are identified as follows:
(§2) PROTOCOL 1,2,and 3 are described in greater detail hereinbelow. In general, according to PROTOCOLS 1 and 2, the target ABAE and/or Human Tumor cells are exposed to the compounds of Formula I for 48 hours. PROTOCOL 3 exposes ABAE cells to the compounds for 4 days. A detailed description of the protocols is as follows:
(§3) The antiproliferative activity of the compounds of Formula I of the present invention is evaluated in a panel comprised of human tumor cell lines and an adult bovine aortic endothelial cell line (ABAE). The human tumor cell lines are from
All cell lines are maintained in log phase in RPMI 1640 media, supplemented with 5% fetal calf serum, penicillin/streptomycin and 2 mM L-glutamine. Cultures are renewed after 20 passages with cells from a fresh stock of batch-frozen early passage cells. Cell lines are routinely checked for mycoplasma contamination (Genprobe). In a laminar flow hood, cells (1-5×10^4) are plated into 96-well microtiter plates in a volume of 0.1 ml/well with a bulk microtiter dispenser (Denley). […] At this concentration, dimethylsulfoxide has no effect on cell growth. Compounds are added using a Tomtec dispenser which simultaneously dispenses from one 96-well plate, containing the drug dilutions, to the plates containing the cells. After two days of continuous drug exposure, 50% cold trichloroacetic acid (TCA) is added to 10% final concentration to fix the cells, and after 60 minutes at 4° C., the TCA is aspirated and the plates are washed 5 times with deionized water using a microtiter plate washer. The number of cells on the plate are quantitated using a protein dye-binding assay (Monks et al., 1991). A 0.4% solution of the dye, sulforhodamine B, in glacial acetic acid is added to the plates, and the plates are washed 5 times with 1% glacial acetic acid using the automatic plate washed. The bound stain is solubilized with 0.1 ml of 10 mM Tris base. The optical densities are read from an automatic spectrophotometric plate reader (Dynatech) directly to a main frame computer (VAX 8600).
(§4) Positive controls, that include standard chemotherapeutic drugs (i.e., Adriamycin, Cisplatin, etc.), are included in every experiment.
(§5) Background optical density measurements (complete media-cells, and complete media+drug-cells) are automatically subtracted from the appropriate control and test wells. Mean values and standard errors are determined from duplicate wells. A measure is also made of the optical density at time when the drugs are added. The number of cells after treatment (P), as % of control, is calculated for every concentration of drug, as follows: [formula] wherein: T is optical density measurement for treated cells after 48 hours;
(§6) C is optical density measurement for untreated cells after 48 hours;
(§7) Co is optical density measurement for cells at the time of drug addition.
(§8) IC50 of growth inhibition is calculated from the sets of P values using the RS-1 data package (BBN Software).
(§9) The antiproliferative activity of the compounds of Formula I is evaluated in a panel comprised of human tumor cell lines and an adult bovine aortic cell line (ABAE) as listed in PROTOCOL 1. This assay is a modification of PROTOCOL 1. The modifications include:
(§10) 1) each concentration for each compound is tested in a single well;
(§11) 2) compounds are tested at 20, 4, 0.8, 0.16 microgram/ml and additionally in some experiments at 100 and 0.32 microgram/ml;
(§12) 3) samples are pipetted into a 96-well plate for each of the cell lines by a Beckman Biomek 1000 SL robot;
(§13) 4) after fixing with TCA each well is washed with 0.35 ml distilled water twice, not five times;
5) after staining with sulforhodamine B each well is washed 3 times, not five times; […]

A2780S = test: Antiproliferative activity in human tumor cell lines: A2780S (ovarian); conditions: PROTOCOL 1 and PROTOCOL 2, 48 hours
Description: The assays are identified as follows:
as §2, §3
Cultures are renewed after 20 passages with cells from a fresh stock of batch-frozen early passage cells. Cell lines are routinely checked for mycoplasma contamination (Genprobe). In a laminar flow hood, cells (1-5×10^4) are plated into 96-well microtiter plates in a volume of 0.1 ml/well with a bulk microtiter dispenser (Denley). […] Compounds are added using a Tomtec dispenser which simultaneously dispenses from one 96-well plate, containing the drug dilutions, to the plates containing the cells. After two days of continuous drug exposure, 50% cold trichloroacetic acid (TCA) is added to 10% final concentration to fix the cells, and after 60 minutes at 4° C., the TCA is aspirated and the plates are washed 5 times with deionized water using a microtiter plate washer. […] A 0.4% solution of the dye, sulforhodamine B, in […] is added to the plates, and the plates are washed 5 times with 1% glacial acetic acid using the automatic plate washed. The bound stain is solubilized with 0.1 ml of 10 mM Tris base. The optical densities are read from an automatic spectrophotometric plate reader (Dynatech) directly to a main frame computer (VAX 8600).
as §4, §5, §6, §7, §8, §9, §10, §11, §12, §13
5) after staining with sulforhodamine B each well is washed 3 times, not five times;
6) the growth inhibition (I) as % of control, is calculated using the RS-1 data package (BBN Software), for every concentration of drug, as follows: [formula] wherein: T is optical density measurement for treated cells after 48 hours;
7) IC50 of growth inhibition is determined graphically from dose response curves, as is known in the art.

[1] = system: Adult Bovine Aortic Endothelial (ABAE) cell line; test: Antiproliferative activity in ABAE cell line, PROTOCOL 3 (4 day assay)
Description: as §1, §2
Antiproliferative Activity in Adult Bovine Aortic Endothelial (ABAE) Cell Line
ABAE cells are grown in DMEMmedia (Mediatech, Washington, D.C.) supplemented with 10% calf serum (Hyclone). ABAE cells are plated in 24-well dishes at 8,000 cells/well, followed by the addition of increasing concentrations of 7-(hydrogen or di(C1 -C4)alkylamino)-8-halogen-9-(substituted)-6-demethyl-6-deoxytetracycline. After four days, the cells are detached and counted. […] The growth inhibition (I) as % of control is calculated as follows: [formula] wherein: Nc is the number of cells in untreated wells;
Nt is the number of cells in treated wells;
No is the number of plated cells.
IC50 of growth inhibition is determined from the sets of I values plotted by Kaleidograph software (Abelbeck Software).
In addition FIG. 1, presents the dose response curve for the compound of Example 10 for the above ABAE cell line obtained by using PROTOCOL 3.

[2] = Caco-2, CACO2 colon tumor, PROTOCOL 1 and PROTOCOL 2, 48 hours, read-out: IC50

Compound | IC50 (CACO2; [2]) | IC50 (A2780S) | IC50 (CACO2; Caco-2, 48 h) | activity upon incubation with cells ([1]; 4 day assay (PROTOCOL 3)) | IC50 ([1]; Bos taurus, 96 h, PROTOCOL 3, 4 day assay, read-out: inhibits 50% of cell growth)
CCCCNCC(=O)Nc1c(Cl)cc2c(c1O)C(=O)C1=C(O)[C@]3(O)C(=O)C(C(N)=O)=C(O)[C@@H](N(C)C)C3CC1C2 (stereo partly drawn) [Example 4, [4S-(4α, 12aα)]-9-[[(Butylamino)acetyl]amino]-8-chloro-4-(dimethylamino) -1,4,4a,5,5a,6,11,12a-octahydro-3,10,12,12a-tetrahydroxy-1,11-dioxo-2-naphthacenecarboxamide dihydrochloride] | 2.5 µg/mL | 2.5 µg/mL | – | – | –
CCCNCC(=O)Nc1c(Cl)cc2c(c1O)C(=O)C1=C(O)[C@]3(O)C(=O)C(C(N)=O)=C(O)[C@@H](N(C)C)C3CC1C2 (stereo partly drawn) [Example 5, [4S-(4α, 12aα)]-8-Chloro-4-(dimethylamino)-1,4,4a,5,5a, 6,11,12a-octahydro-3,10,12,12a-tetrahydroxy-1,11-dioxo-9-[[(propylamino)acetyl]amino]-2-naphthacenecarboxamide dihydrochloride] | – | 3 µg/mL | 4 µg/mL | – | –
CN(C)CC(=O)Nc1c(Cl)cc2c(c1O)C(=O)C1=C(O)[C@]3(O)C(=O)C(C(N)=O)=C(O)[C@@H](N(C)C)C3CC1C2 (stereo partly drawn) [Example 3, [4S-(45, 12aα)]-8-Chloro-4-(dimethylamino)-9[[(dimethylamino)acetyl]amino]-1,4,4a,5,5a,6,11,12a-octahydro-3,10,12,12a-tetrahydroxy-1,11-dioxo-2-naphthacenecarboxamide disulfate] | 1.65 µg/mL | 1.8 µg/mL | – | – | –
CN(C)[C@@H]1C(O)=C(C(N)=O)C(=O)[C@@]2(O)C(O)=C3C(=O)c4c(cc(Cl)c(NC(=O)CNCC5CC5)c4O)CC3CC12 (stereo partly drawn) [Example 8, [4S-(4α,12aα)]-8-Chloro-9-[[(cyclopropylmethylamino)-acetyl]amino]4-(dimethylamino)-1,4,4a,5,5a,6,11,12a-octahydro-3,10,12,12a-tetrahydroxy-1,11-dioxo-2-naphthacenecarboxamide dihydrochloride] | 2.8 µg/mL | 2.2 µg/mL | – | – | –
CNCC(=O)Nc1c(Cl)cc2c(c1O)C(=O)C1=C(O)[C@]3(O)C(=O)C(C(N)=O)=C(O)[C@@H](N(C)C)C3CC1C2 (stereo partly drawn) [Example 7, [4S-(4α, 12aα)]-8-Chloro-4-(dimethylamino)-1,4,4a,5,5a,6,11,12a-octahydro-3,10,12,12a-tetrahydroxy-1,11-dioxo-9-[[(methylamino)acetyl]amino]-2-naphthacenecarboxamide dihydrochloride] | 3.8 µg/mL | 4.6 µg/mL | – | – | –
CN(C)[C@@H]1C(O)=C(C(N)=O)C(=O)[C@@]2(O)C(O)=C3C(=O)c4c(cc(Cl)c(NC(=O)CN5CCCC5)c4O)CC3CC12 (stereo partly drawn) [Example 9, [7S-(7α,10aα)]-N-[9-(Aminocarbonyl)-3-chloro-7-(dimethylamino)-5,5a,6,6a,7,10,10a,12-octahydro-1,8,10a,11-tetrahydroxy-10,12-dioxo-2-naphthacenyl]-1-pyrrolidineacetamide dihydrochloride] | 1.7 µg/mL | 1.3 µg/mL | – | – | –
CN(C)c1c(Cl)cc(O)c2c1CC1CC3[C@H](N(C)C)C(O)=C(C(N)=O)C(=O)[C@@]3(O)C(O)=C1C2=O (stereo partly drawn) [Example 11, [4S-(4α,12aα)]-8-Chloro-4,7-bis(dimethylamino)-1,4,4a,5,5a,6,11,12a-octahydro-3,10,12,12a-tetrahydroxy-1,11-dioxo-2-naphthacenecarboxamide sulfate] | 3.6 µg/mL | 1.6 µg/mL | – | – | –
CN(C)[C@@H]1C(O)=C(C(N)=O)C(=O)[C@@]2(O)C(O)=C3C(=O)c4c(cc(Cl)c(NC(=O)CN5CCCCC5)c4O)CC3CC12 (stereo partly drawn) [Example 10, 7S-(7α,10aα)]-N-[9-(Aminocarbonyl)-3-chloro-7-(dimethylamino)-5,5a,6,6a,7,10,10a,12-octahydro-1,8,10a,11-tetrahydroxy-10,12-dioxo-2-naphthacenyl]-1-piperidineacetamide dihydrochloride] | 0.65 µg/mL | 0.5 µg/mL | – | retains its activity | ~0.4 µg/mL
CCCCCNCC(=O)Nc1c(Cl)cc2c(c1O)C(=O)C1=C(O)[C@]3(O)C(=O)C(C(N)=O)=C(O)[C@@H](N(C)C)C3CC1C2 (stereo partly drawn) [Example 6, [4S-(4α, 12aα)]-8-Chloro-4-(dimethylamino)-1,4,4a,5,5a,6,11,12a-octahydro-3,10,12,12a-tetrahydroxy-1,11-dioxo-9-[[(pentylamino)acetyl]amino]-2-naphthacenecarboxamide dihydrochloride] | 0.7 µg/mL | 0.5 µg/mL | – | – | –
